How the values were obtained:
[1] = molecular target: Putative P2Y purinoceptor 10 (Mus musculus, UniProt Q8BFU7); experiment: Agonist activity at mouse LPS2/P2Y10 transfected in HEK293-A cells co-transfected with AP-TGFalpha assessed as AP-TGFalpha release by TGFalpha shedding assay; assay type: functional, cell-based
[2] = molecular target: Putative P2Y purinoceptor 10 (Mus musculus) (UniProt Q8BFU7); experiment: Agonist activity at mouse LPS2/P2Y10 transfected in HEK293-A cells co-transfected with AP-TGFalpha assessed as AP-TGFalpha release by TGFalpha shedding assay relative to LysoPS; assay type: functional, cell-based; settings: filed as agonist
[3] = molecular target: T1, Putative P2Y purinoceptor 10 (Homo sapiens, UniProt O00398); experiment: Agonist activity at wildtype N-terminal FLAG-tagged human LPS2/P2Y10 transfected in HEK293-A cells co-transfected with AP-TGFalpha assessed as AP-TGFalpha release by TGFalpha shedding assay; assay type: functional, cell-based
[4] = molecular target: Putative P2Y purinoceptor 10 (Homo sapiens, UniProt O00398, V159F); experiment: Agonist activity at N-terminal FLAG-tagged human LPS2/P2Y10 V159F mutant transfected in HEK293-A cells co-transfected with AP-TGFalpha assessed as AP-TGFalpha release by TGFalpha shedding assay; assay type: cell-based
[5] = tested on: Putative P2Y purinoceptor 10 (Homo sapiens), O00398 [V159F]; experiment: Agonist activity at N-terminal FLAG-tagged human LPS2/P2Y10 V159F mutant transfected in HEK293-A cells co-transfected with AP-TGFalpha assessed as AP-TGFalpha release by TGFalpha shedding assay relative to LysoPS; assay type: cell-based; settings: filed as agonist
[6] = molecular target: Putative P2Y purinoceptor 10 (Homo sapiens, UniProt O00398, A163F); experiment: Agonist activity at N-terminal FLAG-tagged human LPS2/P2Y10 A163F mutant transfected in HEK293-A cells co-transfected with AP-TGFalpha assessed as AP-TGFalpha release by TGFalpha shedding assay; assay type: cell-based
[7] = tested on: Putative P2Y purinoceptor 10 (Homo sapiens), O00398 [A163F]; experiment: Agonist activity at N-terminal FLAG-tagged human LPS2/P2Y10 A163F mutant transfected in HEK293-A cells co-transfected with AP-TGFalpha assessed as AP-TGFalpha release by TGFalpha shedding assay relative to LysoPS; assay type: cell-based; settings: filed as agonist
[8] = molecular target: T1, Putative P2Y purinoceptor 10; experiment: Agonist activity at human LPS2/P2Y10 transfected in HEK293-A cells co-transfected with AP-TGFalpha assessed as AP-TGFalpha release by TGFalpha shedding assay; assay type: functional, cell-based
[9] = molecular target: T1, Putative P2Y purinoceptor 10; experiment: Agonist activity at human LPS2/P2Y10 transfected in HEK293-A cells co-transfected with AP-TGFalpha assessed as AP-TGFalpha release by TGFalpha shedding assay relative to LysopPS; assay type: functional, cell-based; settings: filed as agonist
[10] = molecular target: Probable G-protein coupled receptor 34 (Mus musculus, UniProt Q9R1K6); experiment: Agonist activity at mouse LPS1/GPR34 transfected in HEK293-A cells co-transfected with AP-TGFalpha assessed as AP-TGFalpha release by TGFalpha shedding assay; assay type: functional, cell-based
[11] = molecular target: Probable G-protein coupled receptor 34 (Mus musculus) (UniProt Q9R1K6); experiment: Agonist activity at mouse LPS1/GPR34 transfected in HEK293-A cells co-transfected with AP-TGFalpha assessed as AP-TGFalpha release by TGFalpha shedding assay relative to LysoPS; assay type: functional, cell-based; settings: filed as agonist
Sequence of Probable G-protein coupled receptor 34 (Mus musculus) (Q9R1K6 whole entry): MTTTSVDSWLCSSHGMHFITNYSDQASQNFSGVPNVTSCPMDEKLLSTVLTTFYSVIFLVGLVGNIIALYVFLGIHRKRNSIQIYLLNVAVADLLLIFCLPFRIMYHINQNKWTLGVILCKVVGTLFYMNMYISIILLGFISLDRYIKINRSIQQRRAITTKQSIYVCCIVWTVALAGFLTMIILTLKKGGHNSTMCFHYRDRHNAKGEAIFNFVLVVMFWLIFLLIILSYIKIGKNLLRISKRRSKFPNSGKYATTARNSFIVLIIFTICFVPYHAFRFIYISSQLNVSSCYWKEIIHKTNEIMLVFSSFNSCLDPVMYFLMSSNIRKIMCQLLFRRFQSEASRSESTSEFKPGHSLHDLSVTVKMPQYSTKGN

T1 sequence (O00398 whole entry): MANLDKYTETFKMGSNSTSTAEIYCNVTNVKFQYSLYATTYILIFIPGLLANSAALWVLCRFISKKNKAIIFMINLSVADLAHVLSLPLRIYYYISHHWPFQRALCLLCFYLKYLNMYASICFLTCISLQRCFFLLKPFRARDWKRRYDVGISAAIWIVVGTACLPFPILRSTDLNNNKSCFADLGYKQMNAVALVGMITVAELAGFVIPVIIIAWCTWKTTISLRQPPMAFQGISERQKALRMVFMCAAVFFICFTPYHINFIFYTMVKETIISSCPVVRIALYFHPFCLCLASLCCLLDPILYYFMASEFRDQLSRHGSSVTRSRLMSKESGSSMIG
Sequence of Probable G-protein coupled receptor 34 (Q9R1K6 whole entry): as the sequence (Q9R1K6 whole entry) above
Sequence of Putative P2Y purinoceptor 10 (Mus musculus) (Q8BFU7 whole entry): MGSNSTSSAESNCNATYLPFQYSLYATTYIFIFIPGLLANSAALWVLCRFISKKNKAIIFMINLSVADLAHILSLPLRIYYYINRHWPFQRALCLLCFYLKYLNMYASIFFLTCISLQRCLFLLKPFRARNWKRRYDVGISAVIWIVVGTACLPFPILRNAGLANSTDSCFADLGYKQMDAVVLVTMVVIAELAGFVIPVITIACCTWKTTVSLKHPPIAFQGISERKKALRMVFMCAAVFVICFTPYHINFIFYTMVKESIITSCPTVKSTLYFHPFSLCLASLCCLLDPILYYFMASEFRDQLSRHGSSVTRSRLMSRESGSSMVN
Sequence of Putative P2Y purinoceptor 10 (Mus musculus, UniProt Q8BFU7) (Q8BFU7 whole entry): as above
Sequence of Putative P2Y purinoceptor 10 (Homo sapiens), O00398 [V159F] (O00398 whole entry V159F): as the sequence (O00398 whole entry) above, with V159F counted along it
Sequence of Putative P2Y purinoceptor 10 (Homo sapiens, UniProt O00398, V159F) (O00398 whole entry V159F): as the sequence (O00398 whole entry) above, with V159F counted along it
Sequence of Putative P2Y purinoceptor 10 (Homo sapiens), O00398 [A163F] (O00398 whole entry A163F): as the sequence (O00398 whole entry) above, with A163F counted along it
Sequence of Putative P2Y purinoceptor 10 (Homo sapiens, UniProt O00398, A163F) (O00398 whole entry A163F): as the sequence (O00398 whole entry) above, with A163F counted along it

Row | SMILES | EC50 ([1]; read-out: EC50) [nM] | Emax [2] [%] | other results
1 | N[C@@H](COP(=O)(O)OCCCOC(=O)CCc1ccccc1Oc1ccccc1)C(=O)O | 400 | 93 | EC50 [3]: > 3000 nM; EC50 [4]: 1500 nM; Emax [5]: 98%; EC50 [6]: 1600 nM; Emax [7]: 104%
2 | N[C@@H](COP(=O)(O)OCCCCOC(=O)CC(=O)Cc1ccccc1Oc1ccc(-c2ccccc2)cc1)C(=O)O | 140 | 98 | –
3 | CCc1ccccc1Oc1ccccc1CCC(=O)OCCCOP(=O)(O)OC[C@H](N)C(=O)O | 170 | 78 | –
4 | Cc1cccc(COc2ccccc2CCC(=O)OCCCOP(=O)(O)OC[C@H](N)C(=O)O)c1 | 340 | 114 | –
5 | N[C@@H](COP(=O)(O)OCCCOC(=O)CCc1ccccc1Oc1ccc(O)cc1)C(=O)O | > 3 | – | EC50 ([1]; read-out: pEC50 (converted)): < 3160 nM
6 | CC(C)(C)c1cccc(Oc2ccccc2CCC(=O)OCCCOP(=O)(O)OC[C@H](N)C(=O)O)c1 | 400 | 113 | –
7 | N#Cc1ccc(Oc2ccccc2CCC(=O)OCCCOP(=O)(O)OC[C@H](N)C(=O)O)cc1 | > 3 | – | EC50 ([1]; read-out: pEC50 (converted)): < 3160 nM
8 | Cc1cccc(Oc2ccccc2CCC(=O)OCCCOP(=O)(O)OC[C@H](N)C(=O)O)c1 | 210 | 78 | –
9 | CCc1ccc(Oc2ccccc2CCC(=O)OCCCOP(=O)(O)OC[C@H](N)C(=O)O)cc1 | 810 | 72 | –
10 | N[C@@H](COP(=O)(O)OCCCCCOC(=O)CC(=O)Cc1ccccc1Oc1ccc(-c2ccccc2)cc1)C(=O)O | 240 | 105 | –
11 | N[C@@H](COP(=O)(O)OC1CCCO[C@@H]1COC(=O)CCc1ccccc1OCc1cccc(Oc2ccccc2)c1)C(=O)O (some centres undefined) | – | – | EC50 [10]: 180 nM; Emax [11]: 117%
12 | N[C@@H](COP(=O)(O)OCCCOC(=O)CCc1ccccc1Oc1ccccc1-c1ccccc1)C(=O)O | 890 | 105 | EC50 ([8]; read-out: EC50): > 3 nM; EC50 ([8]; read-out: pEC50 (converted)): 5130 nM
13 | CC(C)(C)c1cc(Oc2ccccc2CCC(=O)OCCCOP(=O)(O)OC[C@H](N)C(=O)O)cc(C(C)(C)C)c1 | 200 | 125 | –
14 | N[C@@H](COP(=O)(O)OCCOC(=O)CC(=O)Cc1ccccc1Oc1ccc(-c2ccccc2)cc1)C(=O)O | > 3 | – | EC50 ([1]; read-out: pEC50 (converted)): 6030 nM
15 | N[C@@H](COP(=O)(O)OCCOC(=O)CC(=O)CC(=O)Cc1ccccc1Oc1ccc(-c2ccccc2)cc1)C(=O)O | 200 | 112 | –
16 | Cc1ccccc1Oc1ccccc1CCC(=O)OCCCOP(=O)(O)OC[C@H](N)C(=O)O | 140 | 70 | –

More lines, main results first:

Row | EC50 ([1]; read-out: EC50) [nM] | Emax [2] [%] | SMILES | other results
17 | 29 | 109 | N[C@@H](COP(=O)(O)OCCCOC(=O)CCc1ccccc1Oc1cccc(-c2ccccc2)c1)C(=O)O | EC50 ([8]; read-out: EC50): 62 nM; Emax [9]: 133%
18 | 1.1 | 99 | N[C@@H](COP(=O)(O)OCCCOC(=O)CC(=O)Cc1ccccc1Oc1ccc(-c2ccccc2)cc1)C(=O)O | EC50 ([1]; read-out: pEC50 (converted)): 1070 nM
19 | 18 | 92 | CCc1ccccc1-c1ccc(Oc2ccccc2CCC(=O)OCCCOP(=O)(O)OC[C@H](N)C(=O)O)cc1 | –
20 | 2.6 | 98 | CCc1ccc(-c2ccc(Oc3ccccc3CCC(=O)OCCCOP(=O)(O)OC[C@H](N)C(=O)O)cc2)cc1 | –
21 | 11 | 108 | Cc1ccc(-c2ccc(Oc3ccccc3CCC(=O)OCCCOP(=O)(O)OC[C@H](N)C(=O)O)cc2)cc1 | –
22 | 7.1 | 113 | CCCCCCOc1cccc(COc2ccccc2CCC(=O)OCCCOP(=O)(O)OC[C@H](N)C(N)=O)c1 | EC50 [10]: > 3000 nM
23 | 5.7 | 131 | N[C@@H](COP(=O)(O)OCCCOC(=O)CCc1ccccc1OCc1cccc(-c2ccccc2)c1)C(=O)O | EC50 [10]: > 3000 nM
24 | 3 | 78 | CC(C)(C)c1ccc(-c2ccc(Oc3ccccc3CCC(=O)OCCCOP(=O)(O)OC[C@H](N)C(=O)O)cc2)cc1 | –
25 | 90 | 63 | N[C@@H](COP(=O)(O)OCCCOC(=O)CCc1ccccc1OCc1cccc(Oc2ccccc2)c1)C(=O)O | EC50 ([10]; hek293-a): 220 nM; EC50 ([1]; read-out: pEC50 (converted)): 93.3 nM; Emax [11]: 124%
26 | 46 | 114 | Cc1cc(C)cc(-c2cccc(COc3ccccc3CCC(=O)OCCCOP(=O)(O)OC[C@H](N)C(=O)O)c2)c1 | EC50 [10]: > 3000 nM
27 | 5.3 | 68 | N[C@@H](COP(=O)(O)OCCCOC(=O)CCc1ccccc1Oc1ccc(-c2ccc(C34C[C@H]5C[C@@H](C3)C[C@@H](C4)C5)cc2)cc1)C(=O)O | –
28 | 14 | 115 | CC(C)(C)c1cccc(-c2ccc(Oc3ccccc3CCC(=O)OCCCOP(=O)(O)OC[C@H](N)C(=O)O)cc2)c1 | –
29 | 35 | 99 | CC(C)(C)c1ccc(-c2cccc(COc3ccccc3CCC(=O)OCCCOP(=O)(O)OC[C@H](N)C(=O)O)c2)cc1 | EC50 [10]: 950 nM; Emax [11]: 107%
30 | 2.7 | 111 | CCCCCCCCCCCOc1ccccc1CCC(=O)OCCCOP(=O)(O)OC[C@H](N)C(N)=O | EC50 [10]: 1600 nM; Emax [11]: 94%
31 | 1.5 | 94 | CCCCCCCCCCCOc1ccccc1CCC(=O)OCC(F)(F)COP(=O)(O)OC[C@H](N)C(=O)O | –
32 | 100 | 96 | N[C@@H](COP(=O)(O)OCCCCCOC(=O)CC(=O)CC(=O)Cc1ccccc1Oc1ccc(-c2ccccc2)cc1)C(=O)O | –
33 | 28 | 109 | CC(C)(C)c1cc(-c2cccc(COc3ccccc3CCC(=O)OCCCOP(=O)(O)OC[C@H](N)C(=O)O)c2)cc(C(C)(C)C)c1 | EC50 [10]: > 3000 nM
34 | 130 | 114 | Cc1cc(C)cc(Oc2ccccc2CCC(=O)OCCCOP(=O)(O)OC[C@H](N)C(=O)O)c1 | –
35 | 6.7 | 87 | N[C@@H](COP(=O)(O)OCCCOC(=O)CCc1ccccc1Oc1ccc(-c2ccccc2-c2ccccc2)cc1)C(=O)O | EC50 ([8]; read-out: EC50): 100 nM; Emax [9]: 113%
36 | 1.6 | 59 | Nc1ccc(Oc2ccccc2CCC(=O)OCCCOP(=O)(O)OC[C@H](N)C(=O)O)cc1 | EC50 ([1]; read-out: pEC50 (converted)): 1580 nM
37 | 23 | 121 | N[C@@H](COP(=O)(O)OCCCOC(=O)CCc1ccccc1Oc1cc(-c2ccccc2)cc(-c2ccccc2)c1)C(=O)O | EC50 ([8]; read-out: EC50): 120 nM; Emax [9]: 152%
38 | 31 | 118 | N[C@@H](COP(=O)(O)OCCCCOC(=O)CC(=O)CC(=O)Cc1ccccc1Oc1ccc(-c2ccccc2)cc1)C(=O)O | –
39 | 24 | 112 | CCCCCCCC/C=C\CCCCCCCC(=O)OCCCOP(=O)(O)OC[C@H](N)C(N)=O | EC50 [10]: > 3000 nM
40 | 3.7 | 70 | N[C@@H](COP(=O)(O)OCCCOC(=O)CCc1ccccc1Oc1ccc(-c2ccc(-c3ccccc3)cc2)cc1)C(=O)O | EC50 ([8]; read-out: EC50): 8 nM; Emax [9]: 89%

— ChEMBL document CHEMBL5360551, “Exploration of LPS2 agonist binding modes using the combination of a new hydrophobic scaffold and homology modeling” (Eur J Med Chem, 2023)
